Laboratory results reported in US20260151518A1, “LEUKOCYTE-SPECIFIC CELL PENETRATING MOLECULES” (Amytrx Therapeutics, Inc., priority 2021, published 2026).

Test: Blood partition calculation after single administration of [3H]-AMTX-100
Assay type: in vivo
Design: Partition coefficient / Non-plasma compartment: unit not given here
Conditions: single intravenous (title), 5 mg/kg, rat
Protocol: Eight male Sprague Dawley rats each received a single IV administration of [^3H]-AMTX-100 and a terminal sample of whole blood (each approximately 5-10 mL) was collected via cardiac puncture under isofluorane anesthesia from a single rat at the following time points: […]
Whole blood was collected into tubes containing K2-EDTA as anticoagulant. Following collection, an aliquot of whole blood (approximately 4 mL) was retained for analysis of whole blood and white blood cell (WBC) concentrations. The remaining whole blood samples were processed to plasma. Plasma samples were not depleted of white blood cells.

CSCC[C@@H]1NC(=O)[C@H](CC(C)C)NC(=O)[C@H](CCCCN)NC(=O)[C@H](CCC(N)=O)CC(=O)[C@H](CCCNC(=N)N)NC(=O)[C@H](CCCCN)NC(=O)[C@H](CCCNC(=N)N)NC(=O)[C@H](CCC(N)=O)NC(=O)[C@H](C(C)C)NC(=O)[C@@H](NC(=O)[C@@H]2CCCN2C(=O)[C@H](C)NC(=O)[C@H](CC(C)C)NC(=O)[C@H](CC(C)C)NC(=O)[C@H](C)NC(=O)[C@H](CC(C)C)NC(=O)[C@H](CC(C)C)NC(=O)[C@@H](NC(=O)[C@H](C)NC(=O)[C@@H]2CCCN2C(=O)[C@H](CC(C)C)NC(=O)[C@H](CC(C)C)NC(=O)[C@H](C)NC(=O)[C@@H](NC(=O)[C@H](C)NC(=O)[C@H](C)N)C(C)C)C(C)C)CSSC[C@@H](C(=O)O)NC(=O)[C@@H]2CCCN2C1=O [[^3H]-AMTX-100]
Blood (1 h): 0.081 µg/mL | Non-plasma compartment (1 h): 11.7 | Partition coefficient (1 h): 88.3 | Plasma (1 h): 0.110 µg/mL | Blood (2 h): 0.059^1 μg/mL | Non-plasma compartment (2 h): 20.3 | Partition coefficient (2 h): 79.7 | Plasma (2 h): 0.084 µg/mL | Blood (4 h): 0.054 µg/mL | Non-plasma compartment (4 h): 24.4 | Partition coefficient (4 h): 75.6 | Plasma (4 h): 0.068 µg/mL | Blood (8 h): 0.070 µg/mL | Non-plasma compartment (8 h): 22.9 | Partition coefficient (8 h): 77.1 | Plasma (8 h): 0.090 µg/mL | Blood (24 h): 0.120 µg/mL | Non-plasma compartment (24 h): 27.0 | Partition coefficient (24 h): 73.0 | Plasma (24 h): 0.146 µg/mL | Blood (48 h): 0.186 µg/mL | Non-plasma compartment (48 h): 28.7 | Partition coefficient (48 h): 71.3 | Plasma (48 h): 0.221 µg/mL
